From patent US20250353852A1, “COMPOUNDS AND COMPOSITIONS THAT INHIBIT PIKFYVE” (Kineta, Inc., priority 2021, published 2025)
pIC50: −log10 of the molar value.

Legend:
U2OS cells = experiment: EEA1 assay (endosomal vesicle enlargement as surrogate readout of PIKFyve inhibition); type: cell-based; settings: Homo sapiens, 3 hours of treatment
Protocol: EEA1 Assay. Genetic or pharmacological disruption of PIKfyve activity results in enlargement of endosomal vesicles. This enlargement was utilized as a surrogate readout of PIKFyve inhibition for routine triage of PIKfyve inhibitors. U2OS cells grown in 96-well assay plates were treated with compound diluted in DMEM media containing 10% fetal bovine serum. After 3 hours of treatment, cells were fixed with paraformaldehyde, permeabilized with 0.2% Triton-X in phosphate buffered saline and stained against EEA1. During the secondary antibody staining, cells were also stained with CellMask DeepRed and Hoechst to detect cytoplasms and nuclei respectively. Endosomal structures were visualized using a high content imager at 40× magnification. Images were analyzed using a linear classifier algorithm integrating EEA1 spot size, intensity and texture trained on images of cells treated with the potent reference compound APY0201. Compound activity was calculated by subtracting the DMSO signal and calculating percentage activity relative to maximal APY0201 activity. IC50s were then calculated from concentration vs. % inhibition data by logistic regression.

[1] = target: full-length human PIKFYVE (Homo sapiens (Human), UniProt Q9Y2I7, L932S/Q1183K/Q995L/S1033A/S696N/T998S); experiment: PIKfyve biochemical assay (ADP-Glo Kinase assay, Carna Biosciences); settings: class symbols
Chain of full-length human PIKFYVE (Q9Y2I7 whole entry S696N/L932S/Q995L/T998S/S1033A/Q1183K, the tested form may be a part): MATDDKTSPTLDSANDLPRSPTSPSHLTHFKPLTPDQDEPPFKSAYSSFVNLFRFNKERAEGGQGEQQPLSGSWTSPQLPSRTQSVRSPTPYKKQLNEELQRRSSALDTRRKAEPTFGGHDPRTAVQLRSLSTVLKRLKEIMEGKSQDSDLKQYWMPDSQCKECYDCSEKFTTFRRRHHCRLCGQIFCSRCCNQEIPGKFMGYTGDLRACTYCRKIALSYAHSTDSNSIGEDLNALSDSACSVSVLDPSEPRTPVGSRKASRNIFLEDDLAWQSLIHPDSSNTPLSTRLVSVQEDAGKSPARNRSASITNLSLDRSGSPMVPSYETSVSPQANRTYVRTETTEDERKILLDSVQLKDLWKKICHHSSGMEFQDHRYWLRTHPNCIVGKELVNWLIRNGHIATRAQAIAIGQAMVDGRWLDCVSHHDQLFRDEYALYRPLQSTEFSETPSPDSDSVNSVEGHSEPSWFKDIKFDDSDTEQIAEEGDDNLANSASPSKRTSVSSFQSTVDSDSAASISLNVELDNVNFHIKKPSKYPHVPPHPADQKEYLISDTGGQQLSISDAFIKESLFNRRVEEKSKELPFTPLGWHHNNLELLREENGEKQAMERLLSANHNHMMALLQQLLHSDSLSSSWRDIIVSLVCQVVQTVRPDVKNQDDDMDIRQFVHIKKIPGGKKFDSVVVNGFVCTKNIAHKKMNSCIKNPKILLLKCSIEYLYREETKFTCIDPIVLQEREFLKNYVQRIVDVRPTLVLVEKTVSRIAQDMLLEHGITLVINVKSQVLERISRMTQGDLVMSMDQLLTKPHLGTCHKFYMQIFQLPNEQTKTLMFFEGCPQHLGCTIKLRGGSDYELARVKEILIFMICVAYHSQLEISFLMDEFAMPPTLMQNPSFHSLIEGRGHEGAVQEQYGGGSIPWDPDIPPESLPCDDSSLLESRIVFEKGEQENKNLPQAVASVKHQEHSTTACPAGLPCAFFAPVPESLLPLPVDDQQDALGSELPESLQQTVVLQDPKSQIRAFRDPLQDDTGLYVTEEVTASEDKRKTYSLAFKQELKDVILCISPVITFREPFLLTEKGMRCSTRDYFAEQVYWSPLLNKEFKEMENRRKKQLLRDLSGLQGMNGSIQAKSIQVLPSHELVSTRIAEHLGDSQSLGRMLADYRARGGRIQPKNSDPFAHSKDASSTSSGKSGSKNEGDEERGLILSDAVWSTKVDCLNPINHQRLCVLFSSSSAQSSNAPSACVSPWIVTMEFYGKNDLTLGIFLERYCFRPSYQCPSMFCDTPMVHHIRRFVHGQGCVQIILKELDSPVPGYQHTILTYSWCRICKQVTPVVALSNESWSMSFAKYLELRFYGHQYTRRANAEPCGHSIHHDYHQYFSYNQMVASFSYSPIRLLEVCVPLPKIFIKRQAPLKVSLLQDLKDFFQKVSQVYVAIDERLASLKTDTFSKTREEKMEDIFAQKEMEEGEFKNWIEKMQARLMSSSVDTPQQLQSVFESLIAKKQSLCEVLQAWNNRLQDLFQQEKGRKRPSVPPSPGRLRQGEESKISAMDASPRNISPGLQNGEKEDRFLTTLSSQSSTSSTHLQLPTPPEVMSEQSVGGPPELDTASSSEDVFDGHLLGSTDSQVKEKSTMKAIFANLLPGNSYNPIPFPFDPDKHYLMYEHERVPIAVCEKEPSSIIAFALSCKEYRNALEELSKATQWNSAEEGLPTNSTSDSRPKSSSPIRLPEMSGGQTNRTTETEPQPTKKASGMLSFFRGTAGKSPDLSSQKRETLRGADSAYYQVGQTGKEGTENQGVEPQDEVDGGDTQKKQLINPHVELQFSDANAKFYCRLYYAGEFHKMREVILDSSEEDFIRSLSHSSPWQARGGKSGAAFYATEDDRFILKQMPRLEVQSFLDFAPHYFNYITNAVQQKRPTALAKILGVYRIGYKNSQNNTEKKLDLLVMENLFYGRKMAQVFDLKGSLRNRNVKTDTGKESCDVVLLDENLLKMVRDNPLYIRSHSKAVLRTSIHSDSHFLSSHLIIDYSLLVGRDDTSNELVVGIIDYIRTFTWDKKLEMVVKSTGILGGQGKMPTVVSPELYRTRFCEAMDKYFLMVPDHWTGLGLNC
How it was run: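 N-terminal GST-fused full-length PIKFYVE from baculovirus, incubated with compound, substrate and ATP in 50 mM MOPS, 1 mM DTT, pH7.2 for 1 hour at room temperature. ADP formed detected by ADP-Glo luminescence; IC50 from four-parameter logistic fit of % inhibition.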

[2] = tested on: PIKFYVE TDP-43 yeast strain; experiment: Propidium iodide viability assay, PIKFYVE TDP-43 yeast strain; type: cell-based; settings: Saccharomyces cerevisiae; PIKFYVE TDP-43 yeast strain, values plotted in FIG. 7
Protocol: Generation of TDP-43 yeast model expressing human PIKfyve. Human PIKFYVE (“entry clone”) was cloned into […] (“destination vector”) according to standard Gateway cloning protocols (Invitrogen, Life Technologies). The resulting pAG416GPD-PIKFYVE plasmids were amplified in E. coli and plasmid identity confirmed by restriction digest and Sanger sequencing. […]+) (FIG. 2). Transformed yeast were plated on solid agar plates with complete synthetic media lacking uracil (CSM-ura) and containing 2% glucose. Individual colonies harboring the control or PIKFYVE TDP-43 plasmids were recovered. A plasmid containing wild-type TDP-43 under the transcriptional control of the GAL1 promoter and containing the […] as a selectable marker was transformed into the […]-PIKFYVE yeast strain (FIG. 1). Transformed yeast were plated on CSM-ura containing 2% glucose and 200 μg/mL G418 after overnight recovery in media lacking antibiotic. Multiple independent isolates were further evaluated for cytotoxicity and TDP-43 expression levels. Viability Assay. A control yeast strain with the wild-type yeast FAB1 gene and TDP-43 (“FAB1 TDP-43”, carries empty pAG416 plasmid), and the “PIKFYVE TDP-43” yeast strain, were assessed for toxicity using a propidium iodide viability assay. Both yeast strains were transferred from solid CSM-ura/2% glucose agar plates into 3 mL of liquid CSM-ura/2% glucose media for 6-8 hours at 30° C. with aeration. Yeast cultures were then diluted to an optical density at 600 nm wavelength (OD600) of 0.005 in 3 mL of CSM-ura/2% raffinose and grown overnight at 30° C. with aeration to an OD600 of 0.3-0.8. Log-phase overnight cultures were diluted to OD600 of 0.005 in CSM-ura containing either 2% raffinose or galactose and 150 μL dispensed into each well of a flat bottom 96-well plates. Compounds formulated in 100% dimethyl sulfoxide (DMSO) were serially diluted in DMSO and 1.5 μL diluted compound transferred to the 96-well plates using a multichannel pipet. Wells containing DMSO alone were also evaluated as controls for compound effects. Tested concentrations ranged from 15 μM to 0.11 μM. Cultures were immediately mixed to ensure compound distribution and covered plates incubated at 30° C. for 24 hours in a stationary, humified incubator. Upon the completion of incubation, cultures were assayed for viability using propidium iodide (PI) to stain for dead/dying cells. A working solution of PI was made where, for each plate, 1 μL of 10 mM PI was added to 10 mL of CSM-ura (raffinose or galactose). […] The overnight 96-well assay plate was then mixed with a multichannel pipet and 50 μL transferred to the PI-containing plate. This plate was then incubated for 30 minutes at 30° C. in the dark. A benchtop flow cytometer (Miltenyi MACSquant) was then used to assess red fluorescence (B2 channel), forward scatter, and side scatter (with following settings: gentle mix, high flow rate, fast measurement, 10,000 events). Intensity histograms were then gated for “PI-positive” or “PI-negative” using the raffinose and galactose cultures treated with DMSO as controls. The DMSO controls for raffinose or galactose-containing cultures were used to determine the window of increased cell death and this difference set to 100. All compounds were similarly gated and then compared to this maximal window to establish the percent reduction in PI-positive cells.

| SMILES | pIC50 (U2OS cells; class symbols) | pIC50 [1] | further results |
| --- | --- | --- | --- |
| Cn1ccc(-c2cccc(-c3cc(N4CCOCC4)n4nc(N5CCC(O)CC5)cc4n3)c2)n1 [Compound 152, 1-(5-(3-(1-methyl-1H-pyrazol-3-yl)phenyl)-7-morpholinopyrazolo[1,5-a]pyrimidin-2-yl)piperidin-4-ol] | 5.00 to 6.00 |  |  |
| COc1nn(-c2cc(N3CCOCC3)n3nc(C(O)CO)cc3n2)cc1-c1ccccc1 (centres unmarked) [Compound 145, 1-(5-(3-methoxy-4-phenyl-1H-pyrazol-1-yl)-7-morpholinopyrazolo[1,5-a]pyrimidin-2-yl)ethane-1,2-diol] | 5.00 to 6.00 |  |  |
| COc1nn(-c2cc(N3CCOCC3)n3nc(-c4ccncc4)cc3n2)cc1-c1ccccc1 [Compound 66, 4-(5-(3-methoxy-4-phenyl-1H-pyrazol-1-yl)-2-(pyridin-4-yl)pyrazolo[1,5-a]pyrimidin-7-yl)morpholine] |  | < 5.00 | pIC50 (U2OS cells; numeric values): < 5.52 |
| Oc1cc(C2CCOCC2)nn1-c1cc(N2CCOCC2)n2nc(-c3ccncc3)cc2n1 [drawing 345] |  |  | pIC50 [2]: 5.04 |
| Oc1cc(-c2ccccc2)nn1-c1cc(N2CCOCC2)n2nc(-c3ccncc3)nc2n1 |  |  | pIC50 [2]: 6.16 |
| c1ccc(-c2cccc(-c3cc(N4CCOCC4)n4nc(-c5ccncc5)cc4n3)n2)cc1 |  |  | pIC50 [2]: 6.64 |
| Cc1cccc(-c2ccn(-c3cc(N4CCOCC4)n4nc(C5CCN(C)C(=O)C5)cc4n3)n2)c1 (centres unmarked) [Compound 151, 1-methyl-4-(7-morpholino-5-(3-(m-tolyl)-1H-pyrazol-1-yl)pyrazolo[1,5-a]pyrimidin-2-yl)piperidin-2-one] | 5.00 to 6.00 |  |  |
| Cc1cccc(-c2ccn(-c3cc(N4CCOCC4)n4nc(-c5cccnc5)cc4n3)n2)c1 [Compound 79] | 6.00 to 7.00 | > 8.00 |  |
| COc1cccc(-c2ccn(-c3cc(N4CCOCC4)n4nc(-c5ccncc5)cc4n3)n2)c1 [Compound 71, 4-(5-(3-(3-methoxyphenyl)-1H-pyrazol-1-yl)-2-(pyridin-4-yl)pyrazolo[1,5-a]pyrimidin-7-yl)morpholine] | 6.00 to 7.00 | 7.00 to 8.00 |  |
| Cc1cccc(-c2ccn(-c3cc(N4CCOCC4)n4nccc4n3)n2)c1 [Compound 78, 4-(5-(3-(m-tolyl)-1H-pyrazol-1-yl)pyrazolo[1,5-a]pyrimidin-7-yl)morpholine] | 5.00 to 6.00 |  |  |
| Cc1cccc(/C=N/Nc2nc(N3CCOCC3)c3nc(-c4ccncc4)n(C)c3n2)c1 [drawing 343] |  |  | pIC50 [2]: 5.33 |
| Cc1cccc(-c2ccn(-c3cc(N4CCOCC4)n4nc(CCC(=O)N(C)C)cc4n3)n2)c1 [Compound 149, N,N-dimethyl-3-(7-morpholino-5-(3-(m-tolyl)-1H-pyrazol-1-yl)pyrazolo[1,5-a]pyrimidin-2-yl)propanamide] | 6.00 to 7.00 |  |  |
| c1ccc(-c2nccc(-c3cc(N4CCOCC4)n4nc(C5CCCO5)cc4n3)n2)cc1 (centres unmarked) [Compound 97, 4-(5-(2-phenylpyrimidin-4-yl)-2-(tetrahydrofuran-2-yl)pyrazolo[1,5-a]pyrimidin-7-yl)morpholine] | 5.00 to 6.00 | 7.00 to 8.00 |  |
| Fc1cccc(-c2ccnn2-c2nc(N3CCOCC3)c3ncccc3n2)c1 |  |  | pIC50 [2]: 5.24 |
| Cn1ccc(-c2cccc(-c3cc(N4CCOCC4)n4nc(-c5ccncc5)cc4n3)c2)n1 [Compound 142, 4-(5-(3-(1-methyl-1H-pyrazol-3-yl)phenyl)-2-(pyridin-4-yl)pyrazolo[1,5-a]pyrimidin-7-yl)morpholine] | 5.00 to 6.00 | 7.00 to 8.00 |  |
| Oc1cc(-c2ccccc2)nn1-c1cc(N2CCOCC2)n2nc(-c3ccncc3)cc2n1 [Compound 51, 1-(7-morpholino-2-(pyridin-4-yl)pyrazolo[1,5-a]pyrimidin-5-yl)-3-phenyl-1H-pyrazol-5-ol] | 5.00 to 6.00 | > 8.00 |  |

| SMILES | pIC50 (U2OS cells; class symbols) | pIC50 [1] | further results |
| --- | --- | --- | --- |
| Cc1cccc(/C=N/Nc2nc(N3CCOCC3)c3ncccc3n2)c1 |  |  | pIC50 [2]: 5.09 |
| c1ccc(N2CCc3c(OCc4cccnc4)nc(N4CCOCC4)nc32)cc1 |  |  | pIC50 [2]: 5.57 |
| Cc1cccc(-c2ccn(-c3cc(N4CCOCC4)n4nc(-c5ccncc5)cc4n3)n2)c1 [Compound 65, 4-(2-(pyridin-4-yl)-5-(3-(m-tolyl)-1H-pyrazol-1-yl)pyrazolo[1,5-a]pyrimidin-7-yl)morpholine] | 6.00 to 7.00 | 7.00 to 8.00 |  |
| Cc1cccc(/C=N/Nc2cc(N3CCOCC3)nc(OCCc3ccc(CN)cc3)n2)c1 |  |  | pIC50 [2]: 5.95 |
| CC1(CCc2ccn(-c3cc(N4CCOCC4)n4nc(-c5ccncc5)cc4n3)n2)CC1 [Compound 84, 4-(5-(3-(2-(1-methylcyclopropyl)ethyl)-1H-pyrazol-1-yl)-2-(pyridin-4-yl)pyrazolo[1,5-a]pyrimidin-7-yl)morpholine] |  | 5.00 to 6.00 |  |
| c1ccc(Cc2nccc(-c3cc(N4CCOCC4)n4nc(-c5ccncc5)cc4n3)n2)cc1 [Compound 140, 4-(5-(2-benzylpyrimidin-4-yl)-2-(pyridin-4-yl)pyrazolo[1,5-a]pyrimidin-7-yl)morpholine] |  | 6.00 to 7.00 |  |
| Cc1cccc(-c2ccn(-c3cc(N4CCOCC4)n4nc(C(O)CO)cc4n3)n2)c1 (centres unmarked) [Compound 150, 1-(7-morpholino-5-(3-(m-tolyl)-1H-pyrazol-1-yl)pyrazolo[1,5-a]pyrimidin-2-yl)ethane-1,2-diol] | 5.00 to 6.00 |  |  |
| O=C1CCC(c2ccccc2)CN1c1cc(N2CCOCC2)n2nc(-c3ccncc3)cc2n1 (centres unmarked) [Compound 26, 1-(7-morpholino-2-(pyridin-4-yl)pyrazolo[1,5-a]pyrimidin-5-yl)-5-phenylpiperidin-2-one] |  | 5.00 to 6.00 |  |
| c1ccc(C2CN(c3cc(N4CCOCC4)n4nc(-c5ccncc5)cc4n3)CCN2)cc1 (centres unmarked) [Compound 35, 4-(5-(3-phenylpiperazin-1-yl)-2-(pyridin-4-yl)pyrazolo[1,5-a]pyrimidin-7-yl)morpholine] |  | 5.00 to 6.00 |  |
| Oc1c2c(nn1-c1cc(N3CCOCC3)n3nc(-c4ccncc4)cc3n1)CCCC2 [Compound 55, 2-(7-morpholino-2-(pyridin-4-yl)pyrazolo[1,5-a]pyrimidin-5-yl)-4,5,6,7-tetrahydro-2H-indazol-3-ol] |  | 6.00 to 7.00 |  |
| Oc1cc(-c2cncnc2)nn1-c1cc(N2CCOCC2)n2nc(-c3ccncc3)cc2n1 [Compound 44, 1-(7-morpholino-2-(pyridin-4-yl)pyrazolo[1,5-a]pyrimidin-5-yl)-3-(pyrimidin-5-yl)-1H-pyrazol-5-ol] |  | 6.00 to 7.00 |  |
| Oc1cc(-c2cc(N3CCOCC3)n3nc(-c4ccncc4)cc3n2)nn1-c1cccc(F)c1 [Compound 59, 1-(3-fluorophenyl)-3-(7-morpholino-2-(pyridin-4-yl)pyrazolo[1,5-a]pyrimidin-5-yl)-1H-pyrazol-5-ol] |  | 7.00 to 8.00 |  |
| c1ccc(-c2ccn(-c3cc(N4CCOCC4)n4nc(-c5ccncc5)cc4n3)n2)nc1 [Compound 70, 4-(5-(3-(pyridin-2-yl)-1H-pyrazol-1-yl)-2-(pyridin-4-yl)pyrazolo[1,5-a]pyrimidin-7-yl)morpholine] |  | 6.00 to 7.00 |  |
| c1ccc(-c2ccnc(-c3cc(N4CCOCC4)nc(OCc4ccncc4)n3)n2)cc1 |  |  | pIC50 [2]: 5.84 |
| OCC1(c2ccn(-c3cc(N4CCOCC4)n4nc(-c5ccncc5)cc4n3)n2)CC1 [Compound 82, (1-(1-(7-morpholino-2-(pyridin-4-yl)pyrazolo[1,5-a]pyrimidin-5-yl)-1H-pyrazol-3-yl)cyclopropyl)methanol] |  | 6.00 to 7.00 |  |
